Results reported in PubChem BioAssay AID179 (DTP/NCI, 2004).
Activity calls are given as the source filed them.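 How the source made its calls: active means compounds giving half or more protection of infected cells from virus-caused growth loss, again on retest; inactive means the rest.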

System: CEM cells HIV-1 protection, formazan growth assay
Assay: NCI AIDS Antiviral Assay
Details: for IC50: measured here: growth of uninfected CEM cells
Method in brief: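 Protection of CEM cells against HIV-1 measured as cell growth via soluble formazan read-out, with five concentrations tested on both infected and uninfected cells; failure to protect may reflect toxicity.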

Structure (SMILES)	EC50 [µM]	IC50 [µM]	outcome
CC(C)=CCc1c2c(c3occ(-c4ccc(O)c(O)c4)c(=O)c3c1O)C=CC(C)(C)O2	> 200	39.8	–
Nc1nc2c(ncn2C2C=CC(O)CC2)c(=O)[nH]1 (stereo not given)	> 55	> 55	–
CCC1C(c2ccccc2)=CCC(C(=O)O)C1C (stereo not given)	> 200	> 200	–
O=[As]1(c2ccccc2)c2ccccc2Oc2ccccc21	> 288	141	–
O=C(O)c1nn(-c2ccccc2)c2c1CSc1ccccc1-2	> 200	158	–
N=C(c1ccccc1)N(O)C1CCCCC1	–	–	inactive
CCC(=O)OCNC(=O)NNC(=O)CCCC(=O)NNC(=O)NCOC(=O)CC	> 200	> 200	–
COc1cc2c(cc1OC)CCN=C2	–	–	inactive
O=c1[nH]nc(Cc2ccccc2)n1/N=C/c1ccccc1Cl	> 200	> 200	–
CO/C(N)=C(\C#N)N=Cc1ccsc1	> 200	126	–
CCC1=CCC23C(=O)C=CC(=O)C2(C1)C(=O)c1cccc(OC)c1C3=O (stereo not given)	> 20	1.05	–
C/C(=C/C(=O)Nn1c(Cc2ccccc2)n[nH]c1=O)C(=O)O	> 200	> 200	–
Oc1ccc2cc(SSc3ccc4cc(O)ccc4c3)ccc2c1	> 200	8.13	–
O=C(O)Cn1ncn(NC(=O)Cc2ccccc2)c1=S	> 200	> 200	–
CC(=O)Nc1ccc(C(=O)n2[nH]c(C)c(/C=C3\C(=O)C=Cc4ccccc43)c2=O)cc1	> 87.1	42.7	–
O=S(=O)(c1ccccc1)c1nccs1	110	575	–
O=C(/C=C/c1ccc(OCCCOc2ccc(/C=C/C(=O)c3ccccc3)cc2)cc1)c1ccccc1	> 10.7	> 10.7	–
CCCCCCCCCCCCCCCCCCOc1ccc2c(c1)-c1nc-2nc2[nH]c(nc3nc(nc4[nH]c(n1)c1cc(OCCCCCCCCCCCCCCCCCC)ccc41)-c1ccc(OCCCCCCCCCCCCCCCCCC)cc1-3)c1cc(OCCCCCCCCCCCCCCCCCC)ccc21	> 8.51	> 8.51	–
Cc1cccc(N=Nc2c(C)nn(C(=O)CC(=O)Nc3ccc(Cl)cc3)c2C)c1	> 200	123	–
CCOC(=O)/C(C#N)=c1/s/c(=C(\O)N/N=C/c2ccc(OC)cc2)c(=N)n1-c1ccccc1	> 4.27	> 4.27	–
CCOC(=O)N/N=C(\CC)OCC	> 200	> 200	–
C1=CC2C=CC(C=C1)[PH+]2c1ccccc1.C1=CC2C=CC(C=C1)[PH+]2c1ccccc1.[C-]#[O+].[C-]#[O+].[C-]#[O+].[Fe] (stereo not given)	> 17.8	> 17.8	–

Structure (SMILES)	EC50 [µM]	IC50 [µM]	outcome
O=C1OC2CSCC2O1 (stereo not given)	> 1700	> 1700	–
Cc1cc(=O)oc2cc(N(C)C)ccc12	> 67.6	37.2	–
CC1=C(/C=C/C(C)=C/C2CC(N(C)C)=CC(=O)O2)C(C)(C)CCC1 (stereo not given)	–	–	inactive
CCc1nn(Cc2ccccc2)c2nc(C)c(CCc3ccccc3)c(Cl)c12	> 200	> 200	–
CC(=O)Nc1cccc2[nH]c3ccccc3c(=O)c12	–	–	inactive
[Cu+2].[O-]/C(=N\N=C\c1ccccn1)c1ccccc1O.[O-]/C(=N\N=C\c1ccccn1)c1ccccc1O	> 200	10.2	–
Clc1ccccc1CSc1ccc2nncc(SCc3ccccc3Cl)c2c1	> 34.7	> 34.7	–
Cc1cn(CCCCCCOC(=O)NC(CCCN=C(N)N)C(=O)O)c(=O)[nH]c1=O (stereo not given)	> 200	> 200	–
Oc1c(N2CCCCC2)cc(-c2cc(N3CCCCC3)c(O)c3ccccc23)c2ccccc12	> 200	30.2	–
CNS(=O)(=O)NN(C)S(=O)(=O)c1ccc(Cl)cc1	> 209	204	–
CN1CCN(c2cc3c(cc2F)c(=O)c(C(=O)O)cn3C2CC2)CC1CC#N (stereo not given)	> 200	148	–
COc1ccc2c(c1)OC[C@@H]1c3cc(O)c(OCc4ccccc4)cc3O[C@H]21	9.12	24	–
C=C1c2[nH]c3c([N+](=O)[O-])c(OC)ccc3c2CCN1C(C)=O	–	–	inactive
O=C(CCCCCCCCC(=O)OCC1OC(n2cnc3c(=O)[nH]cnc32)C(O)C1O)OCC1OC(n2cnc3c(=O)[nH]cnc32)C(O)C1O (stereo not given)	> 355	> 355	–
COc1ccc2nc3nc(-c4ccccc4)c(-c4ccccc4)nc3nc2c1	0.0813	3.98	–
CC1(C(=O)O)CC(C(=O)O)=Nn2c3ccccc3c3cccc1c32 (stereo not given)	> 324	> 324	–
CCN(CC)CCCNc1ncc(C)c2c1c1ccc3c(O)cccc3c1n2C	> 13.2	0.24	–
OCC1C2C=CC(O2)[C@H]1CO (stereo not given in full)	–	–	inactive
CN(N=O)C(=O)N[C@@H](C=O)[C@@H](O)[C@H](O)[C@H](O)CO	> 933	> 933	–
CCOC(=O)C1=C(C)/C(=C\c2[nH]c(C)c(C(=O)OCC)c2C)N=C1C	> 200	> 200	–
CCC(=O)CCC1=Nc2nnc(CCCCc3nnc4n3C(=O)C(CCC(=O)CC)=N4)n2C1=O	427	537	–
